Assay results: patent publication US20030225125A1, “IL-8 receptor antagonists” (SmithKline Beecham Corporation, priority 1999, published 2003)

Molecular target: T1, recombinant human IL-8 type β receptor (Type II, permissive receptor) (Homo sapiens, UniProt P25025)
T1 construct: expressed in transfected cells; host or cells: Chinese hamster ovary (CHO) cells; membrane preparation
T1 sequence (P25025 1-360): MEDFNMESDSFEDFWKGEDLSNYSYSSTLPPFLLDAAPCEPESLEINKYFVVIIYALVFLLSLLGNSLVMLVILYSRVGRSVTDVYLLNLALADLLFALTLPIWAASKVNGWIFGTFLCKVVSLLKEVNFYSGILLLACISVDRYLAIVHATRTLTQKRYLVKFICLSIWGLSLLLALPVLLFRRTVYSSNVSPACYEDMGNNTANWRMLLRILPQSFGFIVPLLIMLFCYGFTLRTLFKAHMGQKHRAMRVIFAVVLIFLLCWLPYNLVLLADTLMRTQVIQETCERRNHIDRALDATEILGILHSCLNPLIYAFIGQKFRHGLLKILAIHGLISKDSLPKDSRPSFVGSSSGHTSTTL
Experiment: IL-8 receptor binding assay, permissive model (125I IL-8 / 125I Gro-α, CHO membranes)
Conditions: recombinant receptor expressed in Chinese hamster ovary cell membranes, compound 0.01 nM to 100 uM
Protocol: The IL-8, and GRO-α chemokine inhibitory effects of compounds of the present invention were determined by the following in vitro assay:
[^125I] IL-8 (human recombinant) was obtained from Amersham Corp., Arlington Heights, Ill., with specific activity 2000 Ci/mmol. GRO-α was obtained from NEN-New England Nuclear. All other chemicals were of analytical grade. High levels of recombinant human IL-8 type α and β receptors were individually expressed in Chinese hamster ovary cells as described previously (Holmes, et al., Science, 1991, 253, 1278). The Chinese hamster ovary membranes were homogenized according to a previously described protocol (Haour, et al., J Biol Chem., 249 pp 2195-2205 (1974)). Except that the homogenization buffer was changed to 10 mM Tris-HCL, 1 mM MgS04, 0.5 mM EDTA (ethylene-diaminetetra-acetic acid), 1 mMPMSF (α-toluenesulphonyl fluoride), 0.5 mg/L Leupeptin, pH 7.5. Membrane protein concentration was determined using Pierce Co. micro-assay kit using bovine serum albumin as a standard. All assays were performed in a 96-well micro plate format. […] The filter was then dried and counted on the Betaplate liquid scintillation counter. […]

N-(2,4-Dichloro-3-carboxy)-N′-(2,3-dichlorophenyl)urea
inhibition in the permissive models for IL-8 receptor inhibition: inactive
